# Results from patent US20240408169A1 (priority 2023, published 2024).
# *1 amine or outer side, *2 acyl side, *3 side chain or, on linkers, in order; H or OH if unused. Where a SMILES comes first, the peptide text is derived from it. Bridges are numbered along the chain shown (N, C = ends). [ ]: non-standard residue; d: D form. The star is where a group is joined. X58 = CC(C)C(=O)N1CC=C(c2ccc(Cl)cc2C[C@@H](C(=O)[*:2])N(C)[*:1])CC1; X69 = CCOC(=O)N1CC=C(c2ccc(Cl)cc2C[C@@H](C(=O)[*:2])N(C)[*:1])CC1; NMePhe(5-Cl,2-O(2-Pym)) = CN[C@@H](Cc1cc(Cl)ccc1Oc1ncccn1)C(=O)O; X116 = CN([C@@H](Cc1cc(Cl)ccc1-c1cnc2c(c1)ncn2C)C(=O)[*:2])[*:1]; X26 = CN([C@@H](Cc1cc(F)ccc1-c1cnn(C2CC2)c1)C(=O)[*:2])[*:1]; X35 = CN([C@@H](Cc1cc(Cl)ccc1-c1cnc2ccnn2c1)C(=O)[*:2])[*:1]; NMehhhLys(Me) = CN([C@@H](CCCCCCCN(C)[*:3])C(=O)[*:2])[*:1]; X29 = CN([C@@H](Cc1cc(Cl)ccc1-c1cn[nH]c1)C(=O)[*:2])[*:1]; X44 = Cc1nnc(-c2ccc(Cl)cc2C[C@@H](C(=O)[*:2])N(C)[*:1])o1; NMe(hhhLys) = CN([C@@H](CCCCCCCN[*:3])C(=O)[*:2])[*:1]; Oxane2carbonyl(2R-CF3) = O=C([C@@]1(C(F)(F)F)CCCCO1)*; X28 = CN([C@@H](Cc1cc(Cl)cnc1OC1CCC1)C(=O)[*:2])[*:1]; Cyclobutanecarbonyl(1-CF3) = O=C(C1(C(F)(F)F)CCC1)*; cBuCO(3,3-F2-1-CF3) = O=C(C1(C(F)(F)F)CC(F)(F)C1)*; Pro(trans-4-F) = O=C(O)[C@@H]1C[C@@H](F)CN1; Gly(cPr) = N[C@H](C(=O)O)C1CC1
# Experiments:
# CyclinA2/CDK2 = target: T1, CyclinA2/CDK2 (Homo sapiens, UniProt P20248); experiment: Fluorescence Polarization (FP) competitive binding assay, Cyclin A2/Cdk2; conditions: 8 nM Cyclin A2/Cdk2, 2 nM FAM probe; average of 2-3 independent experiments; read-out: Cyclin A FP IC50;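 further: plates equilibrated two hours at room temperature before polarization reading, IC50 fitted from eight-concentration compound titration curves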
# T1 construct: purchased CRELUX Protein Services
# CyclinB1/CDK1 = target: T2, CyclinB1/CDK1 (Homo sapiens, UniProt P14635); experiment: Fluorescence Polarization (FP) competitive binding assay, Cyclin B1/Cdk1; conditions: 10 nM Cyclin B1/Cdk1, 2 nM FAM probe; average of 2-3 independent experiments; read-out: Cyclin B FP IC50;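 further: fluorescence polarization read after equilibration at room temperature, with IC50 taken from serially diluted dose-response curves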
# T2 construct: purchased Eurofins, discovery 14-450
# CyclinE1/CDK2 = target: T3, CyclinE1/CDK2 (Homo sapiens, UniProt P24864); experiment: Fluorescence Polarization (FP) competitive binding assay, Cyclin E1/Cdk2; conditions: 10 nM Cyclin E1/Cdk2, 2 nM FAM probe; average of 2-3 independent experiments; read-out: Cyclin E FP IC50;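 further: readings taken after two-hour equilibration at room temperature in HEPES buffer with NaCl, DTT, NP-40 and BSA, IC50 fitted from eight-concentration serial dilution series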
# T3 construct: purchased Eurofins, discovery 14-475
# WI-38 cells = experiment: MTT proliferation assay, WI-38; type: cell-based; conditions: 3 days compound exposure, 1:3 serial dilution starting at 10 μM;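 further: Eight- or ten-point dilution series, with exposure length chosen to span about three to four cell doublings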
# NCI-H1048 cells = experiment: MTT proliferation assay, NCI-H1048; type: cell-based; conditions: 5 days compound exposure, 1:3 serial dilution starting at 10 μM;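 further: Dose-response in 96-well plates over 8 or 10 concentration points, with exposure spanning 3-4 cell doublings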
# OVCAR3 cells = experiment: MTT proliferation assay, OVCAR3; type: cell-based; conditions: 5 days compound exposure, 1:3 serial dilution starting at 10 μM;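 further: compound given as an 8- or 10-point series, one day after plating, with exposure covering roughly 3-4 cell doublings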
smiles,measurement,setting,value
"CC(C)C[C@@H]1NC(=O)[C@@H](N(C)C(=O)[C@@H](NC(=O)[C@@H]2C[C@@H](F)CN2C(=O)C2(C(F)(F)F)CC(F)(F)C2)C2CC2)CCCCCCCN(C)C(=O)[C@H](Cc2cc(Cl)cnc2OC2CCC2)N(C)C1=O [Example 140] ({cBuCO(3,3-F2-1-CF3)}-[Pro(trans-4-F)][Gly(cPr)][NMehhhLys(Me)]L[X28]; lactam 3-C)",IC50,CyclinA2/CDK2,20 nM
same,IC50,CyclinB1/CDK1,20 nM
same,IC50,CyclinE1/CDK2,120 nM
same,GI50,WI-38 cells,9250 nM
same,GI50,NCI-H1048 cells,50 nM
same,GI50,OVCAR3 cells,130 nM
CC(C)C[C@@H]1NC(=O)[C@@H](N(C)C(=O)[C@@H](NC(=O)[C@@H]2C[C@@H](F)CN2C(=O)C2(C(F)(F)F)CCC2)C2CC2)CCCCCCCNC(=O)[C@H](Cc2cc(Cl)cnc2OC2CCC2)N(C)C1=O [Example 141] ({Cyclobutanecarbonyl(1-CF3)}-[Pro(trans-4-F)][Gly(cPr)][NMe(hhhLys)]L[X28]; lactam 3-C),IC50,CyclinA2/CDK2,40 nM
same,IC50,CyclinB1/CDK1,20 nM
same,IC50,CyclinE1/CDK2,100 nM
same,GI50,WI-38 cells,3390 nM
same,GI50,NCI-H1048 cells,90 nM
same,GI50,OVCAR3 cells,190 nM
"CC(C)C[C@@H]1NC(=O)[C@@H](N(C)C(=O)[C@@H](NC(=O)[C@@H]2C[C@@H](F)CN2C(=O)C2(C(F)(F)F)CC(F)(F)C2)C2CC2)CCCCCCCNC(=O)[C@H](Cc2cc(Cl)cnc2OC2CCC2)N(C)C1=O [Example 142] ({cBuCO(3,3-F2-1-CF3)}-[Pro(trans-4-F)][Gly(cPr)][NMe(hhhLys)]L[X28]; lactam 3-C)",IC50,CyclinA2/CDK2,40 nM
same,IC50,CyclinB1/CDK1,20 nM
same,IC50,CyclinE1/CDK2,150 nM
same,GI50,WI-38 cells,10200 nM
same,GI50,NCI-H1048 cells,110 nM
same,GI50,OVCAR3 cells,190 nM
"CC(C)C[C@@H]1NC(=O)[C@@H](N(C)C(=O)[C@@H](NC(=O)[C@@H]2C[C@@H](F)CN2C(=O)C2(C(F)(F)F)CC(F)(F)C2)C2CC2)CCCCCCCN(C)C(=O)[C@H](Cc2cc(Cl)ccc2C2=CCN(C(=O)C(C)C)CC2)N(C)C1=O [Example 143] ({cBuCO(3,3-F2-1-CF3)}-[Pro(trans-4-F)][Gly(cPr)][NMehhhLys(Me)]L[X58]; lactam 3-C)",IC50,CyclinA2/CDK2,20 nM
same,IC50,CyclinB1/CDK1,20 nM
same,IC50,CyclinE1/CDK2,940 nM
same,GI50,WI-38 cells,5180 nM
same,GI50,NCI-H1048 cells,10 nM
same,GI50,OVCAR3 cells,20 nM
"CCOC(=O)N1CC=C(c2ccc(Cl)cc2C[C@H]2C(=O)N(C)CCCCCCC[C@H](N(C)C(=O)[C@@H](NC(=O)[C@@H]3C[C@@H](F)CN3C(=O)C3(C(F)(F)F)CC(F)(F)C3)C3CC3)C(=O)N[C@@H](CC(C)C)C(=O)N2C)CC1 [Example 145] ({cBuCO(3,3-F2-1-CF3)}-[Pro(trans-4-F)][Gly(cPr)][NMehhhLys(Me)]L[X69]; lactam 3-C)",IC50,CyclinA2/CDK2,20 nM
same,IC50,CyclinB1/CDK1,20 nM
same,IC50,CyclinE1/CDK2,1300 nM
same,GI50,WI-38 cells,10100 nM
same,GI50,NCI-H1048 cells,70 nM
same,GI50,OVCAR3 cells,80 nM
CC(C)C[C@@H]1NC(=O)[C@@H](N(C)C(=O)[C@@H](NC(=O)[C@@H]2C[C@@H](F)CN2C(=O)[C@@]2(C(F)(F)F)CCCCO2)C2CC2)CCCCCCCN(C)C(=O)[C@H](Cc2cc(F)ccc2-c2cnn(C3CC3)c2)N(C)C1=O [Example 147] ({Oxane2carbonyl(2R-CF3)}-[Pro(trans-4-F)][Gly(cPr)][NMehhhLys(Me)]L[X26]; lactam 3-C),IC50,CyclinA2/CDK2,20 nM
same,IC50,CyclinB1/CDK1,20 nM
same,IC50,CyclinE1/CDK2,100 nM
same,GI50,WI-38 cells,1240 nM
same,GI50,NCI-H1048 cells,10 nM
same,GI50,OVCAR3 cells,10 nM
"CC(C)C[C@@H]1NC(=O)[C@@H](N(C)C(=O)[C@@H](NC(=O)[C@@H]2C[C@@H](F)CN2C(=O)C2(C(F)(F)F)CCC2)C2CC2)CCCCCCCN(C)C(=O)[C@H](Cc2cc(Cl)ccc2Oc2ncccn2)N(C)C1=O [Example 159] ({Cyclobutanecarbonyl(1-CF3)}-[Pro(trans-4-F)][Gly(cPr)][NMehhhLys(Me)]L[NMePhe(5-Cl,2-O(2-Pym))]; lactam 3-C)",IC50,CyclinA2/CDK2,80 nM
same,IC50,CyclinB1/CDK1,20 nM
same,IC50,CyclinE1/CDK2,200 nM
same,GI50,WI-38 cells,9450 nM
same,GI50,NCI-H1048 cells,10 nM
same,GI50,OVCAR3 cells,20 nM
"Cc1nnc(-c2ccc(Cl)cc2C[C@H]2C(=O)NCCCCCCC[C@H](N(C)C(=O)[C@@H](NC(=O)[C@@H]3C[C@@H](F)CN3C(=O)C3(C(F)(F)F)CC(F)(F)C3)C3CC3)C(=O)N[C@@H](CC(C)C)C(=O)N2C)o1 [Example 160] ({cBuCO(3,3-F2-1-CF3)}-[Pro(trans-4-F)][Gly(cPr)][NMe(hhhLys)]L[X44]; lactam 3-C)",IC50,CyclinA2/CDK2,20 nM
same,IC50,CyclinB1/CDK1,20 nM
same,IC50,CyclinE1/CDK2,270 nM
same,GI50,WI-38 cells,11500 nM
same,GI50,NCI-H1048 cells,20 nM
same,GI50,OVCAR3 cells,20 nM
"CC(C)C[C@@H]1NC(=O)[C@@H](N(C)C(=O)[C@@H](NC(=O)[C@@H]2C[C@@H](F)CN2C(=O)C2(C(F)(F)F)CC(F)(F)C2)C2CC2)CCCCCCCN(C)C(=O)[C@H](Cc2cc(Cl)ccc2-c2cn[nH]c2)N(C)C1=O [Example 167] ({cBuCO(3,3-F2-1-CF3)}-[Pro(trans-4-F)][Gly(cPr)][NMehhhLys(Me)]L[X29]; lactam 3-C)",IC50,CyclinA2/CDK2,20 nM
same,IC50,CyclinB1/CDK1,20 nM
same,IC50,CyclinE1/CDK2,280 nM
same,GI50,WI-38 cells,19700 nM
same,GI50,NCI-H1048 cells,10 nM
same,GI50,OVCAR3 cells,10 nM
CC(C)C[C@@H]1NC(=O)[C@@H](N(C)C(=O)[C@@H](NC(=O)[C@@H]2C[C@@H](F)CN2C(=O)C2(C(F)(F)F)CC(F)(F)C2)C2CC2)C/C=C\CCCCN(C)C(=O)[C@H](Cc2cc(Cl)ccc2-c2cnn(C)c2)N(C)C1=O [Example 168],IC50,CyclinA2/CDK2,20 nM
same,IC50,CyclinB1/CDK1,20 nM
same,IC50,CyclinE1/CDK2,160 nM
same,GI50,WI-38 cells,13100 nM
same,GI50,NCI-H1048 cells,10 nM
same,GI50,OVCAR3 cells,10 nM
"CC(C)C[C@@H]1NC(=O)[C@@H](N(C)C(=O)[C@@H](NC(=O)[C@@H]2C[C@@H](F)CN2C(=O)C2(C(F)(F)F)CC(F)(F)C2)C2CC2)CCCCCCCN(C)C(=O)[C@H](Cc2cc(Cl)ccc2-c2cnc3ccnn3c2)N(C)C1=O [Example 172] ({cBuCO(3,3-F2-1-CF3)}-[Pro(trans-4-F)][Gly(cPr)][NMehhhLys(Me)]L[X35]; lactam 3-C)",IC50,CyclinA2/CDK2,60 nM
same,IC50,CyclinB1/CDK1,20 nM
same,IC50,CyclinE1/CDK2,2430 nM
same,GI50,WI-38 cells,13700 nM
same,GI50,NCI-H1048 cells,30 nM
same,GI50,OVCAR3 cells,60 nM
CC(C)C[C@@H]1NC(=O)[C@@H](N(C)C(=O)[C@@H](NC(=O)[C@@H]2C[C@@H](F)CN2C(=O)C2(C(F)(F)F)CCC2)C2CC2)C/C=C\CCCCN(C)C(=O)[C@H](Cc2cc(Cl)ccc2-c2cnn(C)c2)N(C)C1=O [Example 173],IC50,CyclinA2/CDK2,20 nM
same,IC50,CyclinB1/CDK1,20 nM
same,IC50,CyclinE1/CDK2,100 nM
same,GI50,WI-38 cells,12700 nM
same,GI50,NCI-H1048 cells,10 nM
same,GI50,OVCAR3 cells,10 nM
CC(C)C[C@@H]1NC(=O)[C@@H](N(C)C(=O)[C@@H](NC(=O)[C@@H]2C[C@@H](F)CN2C(=O)[C@@]2(C(F)(F)F)CCCCO2)C2CC2)C/C=C\CCCCN(C)C(=O)[C@H](Cc2cc(Cl)ccc2-c2cnn(C)c2)N(C)C1=O [Example 174],IC50,CyclinA2/CDK2,20 nM
same,IC50,CyclinB1/CDK1,20 nM
same,IC50,CyclinE1/CDK2,100 nM
same,GI50,WI-38 cells,6980 nM
same,GI50,NCI-H1048 cells,10 nM
same,GI50,OVCAR3 cells,10 nM
CC(C)C[C@@H]1NC(=O)[C@@H](N(C)C(=O)[C@@H](NC(=O)[C@@H]2C[C@@H](F)CN2C(=O)C2(C(F)(F)F)CC(F)(F)C2)C2CC2)C/C=C\CCCCN(C)C(=O)[C@H](Cc2cc(Cl)ccc2-c2cnn(C3CC3)c2)N(C)C1=O [Example 175],IC50,CyclinA2/CDK2,20 nM
same,IC50,CyclinB1/CDK1,20 nM
same,IC50,CyclinE1/CDK2,130 nM
same,GI50,WI-38 cells,6850 nM
same,GI50,NCI-H1048 cells,10 nM
same,GI50,OVCAR3 cells,10 nM
CC(C)C[C@@H]1NC(=O)[C@@H](N(C)C(=O)[C@@H](NC(=O)[C@@H]2C[C@@H](F)CN2C(=O)C2(C(F)(F)F)CCC2)C2CC2)C/C=C\CCCCN(C)C(=O)[C@H](Cc2cc(Cl)ccc2-c2cnn(C3CC3)c2)N(C)C1=O [Example 176],IC50,CyclinA2/CDK2,20 nM
same,IC50,CyclinB1/CDK1,20 nM
same,IC50,CyclinE1/CDK2,100 nM
same,GI50,WI-38 cells,5480 nM
same,GI50,NCI-H1048 cells,10 nM
same,GI50,OVCAR3 cells,10 nM
"CC(C)C[C@@H]1NC(=O)[C@@H](N(C)C(=O)[C@@H](NC(=O)[C@@H]2C[C@@H](F)CN2C(=O)C2(C(F)(F)F)CC(F)(F)C2)C2CC2)CCCCCCCN(C)C(=O)[C@H](Cc2cc(Cl)ccc2-c2cnc3c(c2)ncn3C)N(C)C1=O [Example 177] ({cBuCO(3,3-F2-1-CF3)}-[Pro(trans-4-F)][Gly(cPr)][NMehhhLys(Me)]L[X116]; lactam 3-C)",IC50,CyclinA2/CDK2,20 nM
same,IC50,CyclinB1/CDK1,20 nM
same,IC50,CyclinE1/CDK2,460 nM
same,GI50,WI-38 cells,8960 nM
same,GI50,NCI-H1048 cells,10 nM
same,GI50,OVCAR3 cells,10 nM
